According to publication PMC11001712, “Epiberberine: a potential rumen microbial urease inhibitor to reduce ammonia release screened by targeting UreG” (Applied Microbiology and Biotechnology, 2024):
Where two headings read alike, the source gives them in different places.

What was measured:
[1] = test system: UreG; test: UreG GTPase activity (Malachite Green Phosphate Assay); format: biochemical, rumen microorganisms of dairy cows; conditions: for IC50: alkaloid 0, 6.25, 12.5, 25, 50 and 100 μM, triplicate, read-out: IC50 against UreG GTPase activity
[2] = test system: urease of ruminal microbial crude protein; test: Urease activity of ruminal microbial crude protein (phenol/hypochlorite); format: biochemical, rumen microorganisms; conditions: Fig. 5A
Method: Ruminal microbial crude protein was collected by ultrasonication and centrifugation following a previously established method (Zhang et al. [2020b]). The urease activity of ruminal microbial crude protein was determined based on the amount of ammonia decomposed by urea through a modified phenol/hypochlorite reaction method (Krallmann-Wenzel [1985]), in which the urease activity without alkaloid and urea was set at 0, and the urease activity without alkaloid was set at 100%. The inhibition rate of alkaloid to inhibit urease activity was calculated by the following formula: Inhibitionrate%=1-A-B/C-D×100 where A represents the absorbance value of urease activity with alkaloid, B represents the absorbance value of urease activity with alkaloid but without urea, C represents the absorbance value of urease activity without alkaloid, and D represents the absorbance value of urease activity without alkaloid and urea. Each measurement was performed in triplicate.

[3] = molecular target: (UniProt A0A6M3RDS9); test: UreG GTPase activity (Malachite Green Phosphate Assay); format: biochemical, rumen microorganisms of dairy cows; conditions: alkaloid 0, 6.25, 12.5, 25, 50 and 100 μM; triplicate; read-out: IC50 against UreG GTPase activity
(UniProt A0A6M3RDS9), sequence (A0A6M3RDS9 1-203): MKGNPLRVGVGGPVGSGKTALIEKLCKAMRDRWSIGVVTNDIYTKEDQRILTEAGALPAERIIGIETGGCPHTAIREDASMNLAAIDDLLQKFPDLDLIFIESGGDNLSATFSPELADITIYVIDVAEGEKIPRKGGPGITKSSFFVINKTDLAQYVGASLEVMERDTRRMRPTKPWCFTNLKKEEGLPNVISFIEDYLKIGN

[4] = molecular target: UreG; test: Isothermal titration calorimetry of nickel binding to UreG in presence of alkaloid; set-up: species or system rumen microorganisms of dairy cows; conditions: for Effect on KD value between nickel and UreG / Effect on N value (nickel: UreG): 27 μM UreG, 1500 μM NiSO4, 238 μM alkaloid
Method: The inhibition mechanism of UreG by alkaloid was explored using ITC and CD spectroscopy, to reveal the effects of alkaloid on the combination of nickel towards UreG and the secondary structure of UreG. ITC measurements were carried out with an AutoITC200 microcalorimeter (GE, MA, USA) as described previously (Zhang et al. [2020a]). Briefly, 27 µM UreG was titrated with 1500 µM NiSO4 in the present of 238 µM alkaloid. The titration curve was fitted with the one-site binding model, and the final data was analyzed by ITC Analysis Module in the software of Origin 7.0 (OriginLab, MA, USA).

[5] = test system: UreG; test: Circular dichroism spectroscopy of UreG secondary structure; set-up: species or system rumen microorganisms of dairy cows; conditions: 233 μg/mL UreG, 88 μM alkaloid
Method: The CD spectra of UreG were recorded using Chirascan Plus spectrometer (Applied Photophysics Ltd., Surrey, UK) equipped with a 1-mm quartz cell, at measurement range between 190 and 260 nm, with 1 nm data pitch and bandwidth. To reduce interference from the background solution, 233 µg/mL UreG and 88 µM alkaloid were prepared using distilled water. The final CD spectrum of UreG was obtained by subtracting the background spectrum (distilled water or alkaloid) from the sample spectrum. The secondary structure proportions (α-helix, β-sheet, β-turn, and random coil) in UreG were calculated using CDNN (v.2.1) software (Applied Photophysics Ltd., Leatherhead, UK).

[6] = test system: UreG; conditions: from trend of Km and Vmax with alkaloid concentration
Method: The kinetics assay of UreG by alkaloid was carried out by Michaelis–Menten equation, and the values of Michaelis–Menten constants (Km and Vmax) were calculated from the Lineweaver–Burk plots through the software of GraphPad Prism. The inhibition with various concentrations of alkaloids (0, 15.6, 62.5, and 250 µM) was measured at different concentrations of GTP substrate (0, 12.5, 25, 50, 100, and 200 µM).

[7] = test system: urease; set-up: method as in Tan et al. [2017]; conditions: ref Tan et al. [2017]; cited from earlier work
[8] = test system: urease of Helicobacter pylori; set-up: method as in Li et al. [2016]; conditions: ref Li et al. [2016]; cited from earlier work
[9] = cited from earlier work
[10] = test system: Helicobacter pylori; set-up: method as in Li et al. [2018]; conditions: antibacterial study and urease activity in vivo; ref Li et al. [2018]; cited from earlier work
[11] = test system: rumen microbial urease (rumen fluid); test: Ruminal microbial fermentation in vitro (NH3 and urea); format: cell-based, rumen microorganisms; conditions: 15 mM urea; for Decrease in NH3 concentration: 12 h of incubation
Method: The study of ruminal microbial fermentation consisted of a control group and 3 epiberberine treatment groups, each containing 70 mL fresh rumen fluid and 140 mL anaerobic medium (Zhang et al. [2020c]). Epiberberine treatment groups with the final concentration of 2, 20, and 200 μM were pre-incubated in an anaerobic chamber at 39 °C for 15 min. Immediately after inoculation, 10 mL aliquots of mixed solution were transferred into Hungate tubes, urea with a final concentration of 15 mM was added into each tube. Three tubes were immediately collected from each group as 0 h samples; the others were sealed with rubber stoppers and cultured in an incubator. Samples were collected at 1, 2, 4, 8, and 12 h of incubation, with 3 tubes in each group. The collected tubes were immediately placed on ice to slow down fermentation; 400 μL of sample solution was mixed with 800 μL metaphosphoric acid solution (25% w/v) and centrifuged at 12,000 × g for 5 min. The supernatant was collected for the detection of NH3 and urea. NH3 content was measured by a modified phenol/hypochlorite reaction method. Urea concentration was determined using the diacetyl monoxime method kit following the manufacturer’s instructions (Jiancheng Bioengineering, Nanjing, China).

[12] = acute toxicity; ref Yi et al. [2013]; cited from earlier work
[13] = rat, in vivo, po; cited from earlier work

## CC(=O)NO [AHA, acetohydroxamic acid, reference compound]
[1]; Fig. 1A screening
  Inhibition rate of UreG GTPase activity: little effect
[2]
  Inhibition rate of urease activity against ruminal microbial crude protein: 40%

## c1c2c(cc3c1OCO3)-c1cc3ccc4c(c3c[n+]1CC2)OCO4 [Coptisine chloride]
[1]
  IC50: 86.6 µM
[1]; ratio of inhibition rates
  Inhibition rate of UreG GTPase activity relative to coptisine: 2.5 times

## COc1cc2c(cc1O)CC[n+]1cc3c(OC)c(OC)ccc3cc1-2 [Jatrorrizine chloride]
[1]
  IC50: 60.1 µM

## COc1cc2c(cc1OC)-c1cc3ccc(OC)c(OC)c3c[n+]1CC2 [Palmatine chloride]
[3]
  IC50: 94.8 µM

## COc1ccc2cc3[n+](cc2c1OC)CCc1cc2c(cc1-3)OCO2 [berberine chloride]
[3]
  IC50: 43.2 µM
[4]
  Effect on KD value between nickel and UreG: slightly altered
  Effect on N value (nickel: UreG): slightly altered
[5]
  Secondary structural content changes of UreG: slight changes
[6]
  Type of inhibition of UreG: mixed-type inhibitor

## COc1ccc2cc3[n+](cc2c1OC)CCc1cc2c(cc1-3)OCO2 [berberine]
[7]
  Inhibitory potential against urease based on IC50 (rank among 5 alkaloids): weakest one among the 5 alkaloids
[8]
  Inhibitory activity against urease of Helicobacter pylori: little inhibitory activity
[9]; rats, ref Chen et al. [2017]
  Oral bioavailability: < 1%

## c1c2c(cc3c1OCO3)-c1cc3ccc4c(c3c[n+]1CC2)OCO4 [coptisine]
[10]
  Inhibitory effect on Helicobacter pylori among the 5 major protoberberine alkaloids: strongest inhibitory effect

## COc1cc2c(cc1OC)-c1cc3ccc4c(c3c[n+]1CC2)OCO4 [epiberberine]
[3]
  IC50: 56.9 µM
[4]
  Effect on KD value between nickel and UreG: increased
  Effect on N value (nickel: UreG): decreased
[4]; 238 μM alkaloid
  Weaker binding of nickel and UreG compared to that of berberine chloride: 10.8 fold
[5]
  Decrease in the α-helix content of UreG: ~ 56%
  Increasement in the β-sheet content of UreG: ~ 105%
[2]
  Inhibition rate of urease activity against ruminal microbial crude protein: significantly higher than that of berberine chloride and AHA
[11]; 2 μM, after 8 h of incubation
  Urea remaining during fermentation: completely decomposed
[11]; 20 μM
  Decrease in NH3 concentration: 13.1%
[11]; 200 μM
  Decrease in NH3 concentration: 15.6%
[6]
  Type of inhibition of UreG: uncompetitive inhibition type
[7]
  Inhibitory potential against urease based on IC50 (rank among 5 alkaloids): lowest IC50 value
[12]
  Median lethal dose: 1360.0 mg/kg
[9]; rat, in vivo, po
  Oral bioavailability: 14.5%
[13]
  Detection in urine, feces and bile: not detected

## COc1cc2c(cc1OC)-c1cc3ccc(OC)c(OC)c3c[n+]1CC2 [palmatine]
[12]
  Median lethal dose: 1533.7 mg/kg
